“And” between values parts separate entries of the source, which are not always exact repeats. Equal entries are not always repeated. Toxic doses and inconclusive results are not listed. Rule as the data show it: active = T/C of 150% or more; inactive = T/C below 125%.
Tested on: L1210 leukemia ip in BDF1 mice, survival T/C
Assay: NCI In Vivo Anticancer Drug Screen. Data for tumor model L1210 Leukemia (intraperitoneal) in B6D2F1 (BDF1) mice
Conditions: endpoint: mean survival time, higher = longer survival
Procedure, shortened: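 Ratio derived from survival: compound-dosed mice over vehicle-dosed mice, all bearing a transplantable tumor.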

[1] = dose: 100.0 mg/kg/injection, schedule: Q01DX009 (ip), vehicle: saline with Tween-80
[2] = dose: 100.0 mg/kg/injection, schedule: Q04DX003 (ip), vehicle: saline with Tween-80
[3] = dose: 200.0 mg/kg/injection, schedule: Q01DX009 (ip), vehicle: saline with Tween-80
[4] = dose: 200.0 mg/kg/injection, schedule: Q04DX003 (ip), vehicle: saline with Tween-80
[5] = dose: 400.0 mg/kg/injection, schedule: Q04DX003 (ip), vehicle: saline with Tween-80
[6] = dose: 100.0 mg/kg/injection, schedule: Q04DX002 (ip), vehicle: saline
[7] = dose: 200.0 mg/kg/injection, schedule: Q04DX002 (ip), vehicle: saline
[8] = dose: 400.0 mg/kg/injection, schedule: Q04DX002 (ip), vehicle: saline
[9] = dose: 100.0 mg/kg/injection, schedule: Q01DX001 (ip), vehicle: carboxymethylcellulose (CMC)
[10] = dose: 200.0 mg/kg/injection, schedule: Q01DX001 (ip), vehicle: carboxymethylcellulose (CMC)
[11] = dose: 400.0 mg/kg/injection, schedule: Q01DX001 (ip), vehicle: carboxymethylcellulose (CMC)
[12] = dose: 100.0 mg/kg/injection, schedule: Q04DX002 (ip), vehicle: saline with Tween-80
[13] = dose: 200.0 mg/kg/injection, schedule: Q04DX002 (ip), vehicle: saline with Tween-80
[14] = dose: 400.0 mg/kg/injection, schedule: Q01DX009 (ip), vehicle: saline with Tween-80
[15] = dose: 400.0 mg/kg/injection, schedule: Q04DX002 (ip), vehicle: saline with Tween-80
[16] = dose: 100.0 mg/kg/injection, schedule: Q01DX001 (ip), vehicle: saline
[17] = dose: 200.0 mg/kg/injection, schedule: Q01DX001 (ip), vehicle: saline
[18] = dose: 100.0 mg/kg/injection, schedule: Q04DX002 (ip), vehicle: Klucel (hydroxypropylcellulose) (HPC)
[19] = dose: 400.0 mg/kg/injection, schedule: Q04DX002 (ip), vehicle: Klucel (hydroxypropylcellulose) (HPC)
[20] = dose: 100.0 mg/kg/injection, schedule: Q01DX001 (ip), vehicle: Klucel (hydroxypropylcellulose) (HPC)
[21] = dose: 200.0 mg/kg/injection, schedule: Q01DX001 (ip), vehicle: Klucel (hydroxypropylcellulose) (HPC)
[22] = dose: 400.0 mg/kg/injection, schedule: Q01DX001 (ip), vehicle: Klucel (hydroxypropylcellulose) (HPC)
[23] = dose: 100.0 mg/kg/injection, schedule: Q04DX003 (ip), vehicle: saline
[24] = dose: 200.0 mg/kg/injection, schedule: Q04DX003 (ip), vehicle: saline
[25] = dose: 12.5 mg/kg/injection, schedule: Q01DX009 (ip), vehicle: saline with Tween-80
[26] = dose: 25.0 mg/kg/injection, schedule: Q01DX009 (ip), vehicle: saline with Tween-80
[27] = dose: 50.0 mg/kg/injection, schedule: Q01DX009 (ip), vehicle: saline with Tween-80
[28] = dose: 100.0 mg/kg/injection, schedule: Q01DX009 (ip), vehicle: Klucel (hydroxypropylcellulose) (HPC)
[29] = dose: 200.0 mg/kg/injection, schedule: Q01DX009 (ip), vehicle: Klucel (hydroxypropylcellulose) (HPC)
[30] = dose: 400.0 mg/kg/injection, schedule: Q01DX009 (ip), vehicle: Klucel (hydroxypropylcellulose) (HPC)
[31] = dose: 200.0 mg/kg/injection, schedule: Q04DX002 (ip), vehicle: Klucel (hydroxypropylcellulose) (HPC)

Measured: T/C

S=C(N/N=C/c1ccc(-c2ccccc2)cc1)Nc1ccccc1
inactive: [1] 86 % of control | [2] 97 % of control | [3] 88 % of control | [4] 100 % of control | [5] 94 % of control

Cc1cc[n+](Cc2cc3ccccc3[nH]c2=O)cc1
inactive: dose: 12.5 mg/kg/injection, schedule: Q01DX001 (ip), vehicle: saline 96 % of control | dose: 25.0 mg/kg/injection, schedule: Q01DX001 (ip), vehicle: saline 100 % of control | dose: 50.0 mg/kg/injection, schedule: Q01DX001 (ip), vehicle: saline 95 % of control

C/C=C/C=C/COC(=O)CCCCCCCC
inactive: [6] 103 % of control | [7] 103 % of control | [8] 108 % of control

CS(=O)(=O)Oc1c(Cl)c(Cl)c(OS(C)(=O)=O)c(Cl)c1Cl
inactive: [9] 101 % of control | [10] 92 % of control | [11] 98 % of control

COC(=O)c1ccccc1OC(=O)Nc1ccc(SC)cc1
inactive: dose: 50.0 mg/kg/injection, schedule: Q04DX002 (ip), vehicle: saline with Tween-80 96 % of control and 91 % of control | [1] 96 % of control | [12] 96 % of control and 104 % of control and 86 % of control | [2] 100 % of control | [3] 94 % of control and 89 % of control | [13] 95 % of control and 104 % of control | [4] 98 % of control | [14] 102 % of control and 115 % of control | [15] 93 % of control and 105 % of control and 107 % of control | [5] 97 % of control

O=C(O)CCS(=O)(=O)c1ccc(N(CCCl)CCCl)cc1
inactive: [2] 107 % of control | [4] 102 % of control | [5] 105 % of control

CC/C(=N/NC(N)=O)c1ccccc1Cl
inactive: [16] 97 % of control | [17] 96 % of control | dose: 400.0 mg/kg/injection, schedule: Q01DX001 (ip), vehicle: saline 106 % of control

CC(C)(C)OC1C2C=CC1C1C2C2(Cl)C(Cl)=C(Cl)C1(Cl)C21OCCO1 (configuration not stated)
inactive: [18] 97 % of control | [19] 110 % of control

Cc1cccc(NC(=O)Oc2cc(C)c(Cl)cc2C(C)C)c1
inactive: dose: 100.0 mg/kg/injection, schedule: Q01DX001 (ip), vehicle: saline with Tween-80 103 % of control | [1] 95 % of control and 103 % of control | [12] 105 % of control and 108 % of control | [2] 90 % of control | dose: 200.0 mg/kg/injection, schedule: Q01DX001 (ip), vehicle: saline with Tween-80 104 % of control | [3] 98 % of control and 103 % of control | [13] 97 % of control and 87 % of control | [4] 98 % of control | dose: 400.0 mg/kg/injection, schedule: Q01DX001 (ip), vehicle: saline with Tween-80 106 % of control | [14] 95 % of control and 98 % of control | [15] 94 % of control and 100 % of control | [5] 100 % of control

CC(=O)Nc1nc2oc(C)nc2c(=O)[nH]1
inactive: [20] 104 % of control | [21] 97 % of control | [22] 103 % of control

CC(=O)N1CCCC(=O)CCCCCCC1=O
inactive: dose: 50.0 mg/kg/injection, schedule: Q04DX003 (ip), vehicle: saline 95 % of control | [23] 103 % of control | [24] 88 % of control

CCC(CC)COCCCN
inactive: [25] 97 % of control | dose: 12.5 mg/kg/injection, schedule: Q04DX003 (ip), vehicle: saline with Tween-80 97 % of control | [26] 98 % of control | dose: 25.0 mg/kg/injection, schedule: Q04DX003 (ip), vehicle: saline with Tween-80 95 % of control | [27] 93 % of control | dose: 50.0 mg/kg/injection, schedule: Q04DX003 (ip), vehicle: saline with Tween-80 94 % of control

COC(=O)c1cc(NC(=O)c2ccccc2F)cc(C(=O)OC)c1
inactive: dose: 100.0 mg/kg/injection, schedule: Q01DX009 (ip), vehicle: carboxymethylcellulose (CMC) 88 % of control | dose: 200.0 mg/kg/injection, schedule: Q01DX009 (ip), vehicle: carboxymethylcellulose (CMC) 90 % of control | dose: 400.0 mg/kg/injection, schedule: Q01DX009 (ip), vehicle: carboxymethylcellulose (CMC) 91 % of control

CN(C)c1c(Cl)cc([N+](=O)[O-])cc1Cl
inactive: [20] 97 % of control | [21] 95 % of control | [22] 94 % of control

O=C(NNC(=O)c1cccc2ccccc12)c1cc(Br)ccc1Br
inactive: [23] 97 % of control | [24] 87 % of control | dose: 400.0 mg/kg/injection, schedule: Q04DX003 (ip), vehicle: saline 100 % of control

CCCCCCC#CC(=O)OCCCCCC
inactive: [6] 108 % of control | [7] 94 % of control | [8] 97 % of control

c1ccc([CH2][Ge]([c]2ccccc2)([c]2ccccc2)[c]2ccccc2)cc1
inactive: dose: 25.6 mg/kg/injection, schedule: Q04DX002 (ip), vehicle: saline with Tween-80 89 % of control | dose: 64.0 mg/kg/injection, schedule: Q04DX002 (ip), vehicle: saline with Tween-80 93 % of control | [2] 104 % of control | dose: 160.0 mg/kg/injection, schedule: Q04DX002 (ip), vehicle: saline with Tween-80 89 % of control | [4] 96 % of control | [15] 89 % of control | [5] 102 % of control

Cc1cccc(N=Nc2ccc(O)cc2)c1
inactive: [28] 100 % of control | [29] 97 % of control | [30] 101 % of control

CC(=O)OC1CCCCC1NC(=O)NCCCl (configuration not stated)
inactive: dose: 12.5 mg/kg/injection, schedule: Q04DX002 (ip), vehicle: Klucel (hydroxypropylcellulose) (HPC) 87 % of control | dose: 25.0 mg/kg/injection, schedule: Q04DX002 (ip), vehicle: Klucel (hydroxypropylcellulose) (HPC) 93 % of control | dose: 50.0 mg/kg/injection, schedule: Q04DX002 (ip), vehicle: Klucel (hydroxypropylcellulose) (HPC) 101 % of control | [18] 91 % of control | [31] 103 % of control | [19] 106 % of control and 95 % of control

O=C(Nc1ccccc1F)c1ccc(C(=O)Nc2ccccc2F)cc1
inactive: [25] 92 % of control | [26] 86 % of control | [27] 90 % of control | [2] 90 % of control | [4] 87 % of control

O=C1c2cccc3cccc(c23)C(=O)N1CCCCCCCCN1C(=O)c2cccc3cccc(c23)C1=O
inactive: [18] 88 % of control | [31] 101 % of control

c1ccc2c(c1)CCCc1cn[nH]c1-2
inactive: [16] 98 % of control | [17] 95 % of control

CC(C)(C)OC(=O)NN1Cc2ccccc2Cc2ccccc2C1
inactive: [9] 96 % of control | [10] 91 % of control | [11] 96 % of control

COc1ccc2c(c1O)-c1cc(O)cc3c1C(C2)NCC3 (configuration not stated)
inactive: dose: 0.63 mg/kg/injection, schedule: Q04DX003 (ip), vehicle: DMSO 105 % of control | dose: 1.25 mg/kg/injection, schedule: Q04DX003 (ip), vehicle: DMSO 96 % of control | dose: 2.5 mg/kg/injection, schedule: Q04DX003 (ip), vehicle: DMSO 93 % of control

COc1ccc2c(c1Oc1ccc([N+](=O)[O-])cc1[N+](=O)[O-])C13CCN(C)C(C2)C1CCC1(C3)OCCO1 (configuration not stated)
inactive: dose: 12.5 mg/kg/injection, schedule: Q01DX009 (ip), vehicle: Klucel (hydroxypropylcellulose) (HPC) 98 % of control | dose: 25.0 mg/kg/injection, schedule: Q01DX009 (ip), vehicle: Klucel (hydroxypropylcellulose) (HPC) 121 % of control | dose: 50.0 mg/kg/injection, schedule: Q01DX009 (ip), vehicle: Klucel (hydroxypropylcellulose) (HPC) 101 % of control | [28] 102 % of control | [29] 102 % of control | [30] 88 % of control

CCOC(=O)C1C(=O)C=C(c2ccccc2)CC1c1ccccc1 (configuration not stated)
inactive: [13] 90 % of control | [15] 97 % of control

Source: PubChem BioAssay AID248 (DTP/NCI, 2004)
